From EP4640678A1, “NOVEL OXO-PYRIDINE COMPOUND, PREPARATION METHOD THEREFOR, AND USE THEREOF” (Chengdu Shibeikang Biomedical Technology Co., Ltd., priority 2022, dated 2024)

What was measured:
human FXla = human FXla (Homo sapiens, UniProt P03951); test: Activity assay of coagulation factor FXla inhibitor (S-2366 substrate, OD405nm); assay type: biochemical; settings: 5 concentrations 200 nM to 0.32 nM, 0.8 nM (2X) human FXla working solution
Text: X: log value of compound concentration; Y: inhibition rate (%).

human plasma = test: determination of in-vitro anticoagulant effect in human plasma (APTT); assay type: biochemical; settings: for APTT prolongation rate (%): healthy human plasma, 37°C for 3 min; for EC150: estimated from the APTT test results in human plasma
Procedure: After centrifugation, the plasma sample was pipetted and frozen (-80°C) for later use.
A proper amount of a compound was weighed and prepared into a 10-100 mM stock solution using 100% of DMSO (the specific concentration of the stock solution was determined based on the properties of the compound); and then working solutions with various concentrations (specifically: 1 µM, 3 µM and 10 µM, respectively) were prepared from the stock solution using the healthy human plasma as a solution and thoroughly mixed. After incubation at 37°C for 3 min, the sample was placed on an instrument (model: CS-2000I) to determine APTT.
GraphPad Prism software was used for analysis to calculate the APTT prolongation rate at each concentration.

[1] = Study of pharmacokinetics in rats; assay type: in vivo; settings: rat, po; male SD rats, intragastrical gavage, 30 mg/kg, plasma
Procedure: Each group was administered via intragastrical gavage at a dose of 30 mg/kg.
About 0.5 mL of blood was collected, placed in an EDTA-K2 tube, centrifuged to separate plasma, and stored at -80°C. The drug plasma concentration was measured using a liquid chromatography-tandem mass spectrometry analysis system (LC-MS/MS), and pharmacokinetic parameters, such as AUC0-t, Cmax, Tmax and t1/2, were calculated based on the drug plasma concentration data using DAS 2.0 software.

human FXla, sequence (P03951 388-625 limits assumed): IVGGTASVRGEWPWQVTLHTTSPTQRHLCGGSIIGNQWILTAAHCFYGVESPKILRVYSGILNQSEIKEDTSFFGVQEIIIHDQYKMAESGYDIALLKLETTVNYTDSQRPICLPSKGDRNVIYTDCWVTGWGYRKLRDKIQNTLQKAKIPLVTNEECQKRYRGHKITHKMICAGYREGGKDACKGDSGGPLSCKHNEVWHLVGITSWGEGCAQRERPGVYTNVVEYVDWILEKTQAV
human FXla, sequence (P03951 19-387 partner limits assumed): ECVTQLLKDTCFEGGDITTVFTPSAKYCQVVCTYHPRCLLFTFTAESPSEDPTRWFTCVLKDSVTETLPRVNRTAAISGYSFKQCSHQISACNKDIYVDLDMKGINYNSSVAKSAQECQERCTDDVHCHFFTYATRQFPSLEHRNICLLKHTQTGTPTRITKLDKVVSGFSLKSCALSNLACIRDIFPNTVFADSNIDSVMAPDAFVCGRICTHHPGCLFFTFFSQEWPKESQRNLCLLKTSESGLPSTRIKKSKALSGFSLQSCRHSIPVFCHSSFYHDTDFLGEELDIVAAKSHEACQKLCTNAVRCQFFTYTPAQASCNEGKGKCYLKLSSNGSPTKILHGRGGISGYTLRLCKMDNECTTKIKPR

Row | SMILES | IC50 (human FXla) [nM] | AUC(0-t) [1] [ng·h/mL] | Cmax [1] [ng/mL] | Tmax [1] [h] | half-life [1] [h] | APTT prolongation rate (%) (human plasma; 3 µM) | APTT prolongation rate (%) (human plasma; 10 µM) | EC150 (human plasma) | APTT prolongation rate (%) (human plasma; 1 µM)
1 | CC[C@@H](C(=O)Nc1ccc(C(=O)O)c(OC)c1)n1cc(OC)c(-c2cc(Cl)ccc2-n2cc(C(F)(F)F)nn2)cc1=O [Compound 6, (S)-4-(2-(4-(5-chloro-2-(4-(trifluoromethyl)-1H-1,2,3-triazol-1-yl)phenyl)-5-methoxy-2-oxopyridin-1(2H)-yl)butanamido)-2-methoxybenzoic acid] | 0.96 | 89800 | 6440 | 4.1 | 7.08 | 78.0 | 135.1 | less than 1 µM | –
2 | CC[C@@H](C(=O)Nc1ccc(C(=O)NC)c(OC)c1)n1cc(OC)c(-c2cc(Cl)ccc2-n2cc(C(F)(F)F)nn2)cc1=O [Compound 18, (S)-4-(2-(4-(5-chloro-2-(4-(trifluoromethyl)-1H-1,2,3-triazol-1-yl)phenyl)-5-methoxy-2-oxopyridin-1(2H)-yl)butanamido)-2-methoxy-N-methylbenzamide] | 9.06 | – | – | – | – | 46.1 | 90.6 | – | 33.2
3 | [2H]C([2H])([2H])Oc1cn([C@@H](CC)C(=O)Nc2ccc(C(N)=O)c(Cl)c2)c(=O)cc1-c1cc(Cl)ccc1-n1cc(C(F)(F)F)nn1 [Compound 22, (S)-2-chloro-4-(2-(4-(5-chloro-2-(4-(trifluoromethyl)-1H-1,2,3-triazol-1-yl)phenyl)-5-(methoxy-d3)-2-oxopyridin-1(2H)-yl)butanamido)benzamide] | 4.23 | – | – | – | – | 62.0 | 105.9 | – | 35.6

Continued by falling IC50 (human FXla), values first:

Row | IC50 (human FXla) [nM] | AUC(0-t) [1] [ng·h/mL] | Cmax [1] [ng/mL] | Tmax [1] [h] | half-life [1] [h] | SMILES | APTT prolongation rate (%) (human plasma; 3 µM) | APTT prolongation rate (%) (human plasma; 10 µM) | EC150 (human plasma) | APTT prolongation rate (%) (human plasma; 1 µM)
4 | 25.5 | – | – | – | – | CC[C@@H](C(=O)Nc1ccc(C(N)=O)cc1F)n1cc(OC)c(-c2cc(Cl)ccc2-n2cc(C(F)(F)F)nn2)cc1=O [Compound 13, (S)-4-(2-(4-(5-chloro-2-(4-(trifluoromethyl)-1H-1,2,3-triazol-1-yl)phenyl)-5-methoxy-2-oxopyridin-1(2H)-yl)butanamido)-3-fluorobenzamide] | 80.2 | 175.9 | less than 1 µM | –
5 | 6.32 | – | – | – | – | CC[C@@H](C(=O)Nc1ccc(C(=O)O)c(Cl)c1)n1cc(OC)c(-c2cc(Cl)ccc2-n2cc(Cl)nn2)cc1=O [Compound 9, (S)-2-chloro-4-(2-(4-(5-chloro-2-(4-chloro-1H-1,2,3-triazol-1-yl)phenyl)-5-methoxy-2-oxopyridin-1(2H)-yl)butanamido)benzoic acid] | 69.5 | 103.8 | – | 44.3
6 | 5.6 | – | – | – | – | CC[C@@H](C(=O)Nc1ccc(C(N)=O)c(OC)c1)n1cc(OC)c(-c2cc(Cl)ccc2-n2cc(C(F)(F)F)nn2)cc1=O [Compound 5, (S)-4-(2-(4-(5-chloro-2-(4-(trifluoromethyl)-1H-1,2,3-triazol-1-yl)phenyl)-5-methoxy-2-oxopyridin-1(2H)-yl)butanamido)-2-methoxybenzamide] | 84.6 | 125.8 | less than 1 µM | –
7 | 1.65 | – | – | – | – | CC[C@@H](C(=O)Nc1ccc(C(=O)NC)c(F)c1)n1cc(OC)c(-c2cc(Cl)ccc2-n2cc(C(F)(F)F)nn2)cc1=O [Compound 17, (S)-4-(2-(4-(5-chloro-2-(4-(trifluoromethyl)-1H-1,2,3-triazol-1-yl)phenyl)-5-methoxy-2-oxopyridin-1(2H)-yl)butanamido)-2-fluoro-N-methylbenzamide] | 82.6 | 145.3 | less than 1 µM | –
